For one series, the target named is Carbonic anhydrase 4 (Homo sapiens, UniProt P22748). In words: Inhibition of recombinant human carbonic anhydrase 4 incubated for 15 mins prior to testing measured for 10 to 100 secs by phenol red-based stopped-flow CO2 hydration assay.
The target of series [1] is T1, Carbonic anhydrase 1 (Homo sapiens, UniProt P00915). In words: Inhibition of recombinant human carbonic anhydrase 1 incubated for 15 mins prior to testing measured for 10 to 100 secs by phenol red-based stopped-flow CO2 hydration assay.
T1 sequence (P00915 whole entry): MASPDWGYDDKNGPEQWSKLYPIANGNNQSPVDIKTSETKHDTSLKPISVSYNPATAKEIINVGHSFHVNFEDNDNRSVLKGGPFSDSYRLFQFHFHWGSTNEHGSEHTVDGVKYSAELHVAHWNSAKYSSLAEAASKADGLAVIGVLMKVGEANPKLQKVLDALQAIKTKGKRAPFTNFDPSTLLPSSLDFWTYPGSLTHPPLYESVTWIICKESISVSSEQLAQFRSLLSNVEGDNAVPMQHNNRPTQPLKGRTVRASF
The subject of series [2] is Rattus norvegicus. In words: Antihyperalgesic activity in complete freund's adjuvant-induced Sprague-Dawley rat arthritis model assessed as increase in hind paw withdrawal reflex thresholds at 42.4 mg/kg, po administered 14 days post complete freund's adjuvant challenge and measured after 45 to 60 mins by analgesiometry-based paw pressure test. Type of series: functional, organism-based.

The test system of series [3] is Rattus norvegicus. The series is described as follows: Antihyperalgesic activity in complete freund's adjuvant-induced Sprague-Dawley rat arthritis model assessed as increase in hind paw withdrawal reflex thresholds at 42.4 mg/kg, po administered 14 days post complete freund's adjuvant challenge and measured up to 45 mins by analgesiometry-based paw pressure test. Type of series: functional, organism-based.

For series [4], the system named is Rattus norvegicus. In words: Antihyperalgesic activity in complete freund's adjuvant-induced Sprague-Dawley rat arthritis model assessed as decrease in weight burden on contralateral to ipsilateral paw at 42.4 mg/kg, po administered 14 days post complete freund's adjuvant challenge and measured up to 45 mins by incapacitance test. The format is functional, organism-based.

Series [5] deals with Rattus norvegicus. The series is described as follows: Effect on contralateral paw withdrawal reflex threshold in complete freund's adjuvant-induced Sprague-Dawley rat arthritis model at 42.4 mg/kg, po administered 14 days post complete freund's adjuvant challenge by analgesiometry-based paw pressure test. Type of series: ADME, organism-based. The following applies: in vivo, 336 h.

Series [6] addresses T2, Carbonic anhydrase 9 (Homo sapiens, UniProt Q16790). The series is described as follows: Inhibition of recombinant human carbonic anhydrase 9 incubated for 15 mins prior to testing measured for 10 to 100 secs by phenol red-based stopped-flow CO2 hydration assay.
In series [7] the target is T3, Carbonic anhydrase 2 (Homo sapiens, UniProt P00918). In words: Inhibition of recombinant human carbonic anhydrase 2 incubated for 15 mins prior to testing measured for 10 to 100 secs by phenol red-based stopped-flow CO2 hydration assay.
Series [8] addresses T1, Carbonic anhydrase 1. The series is described as follows: Inhibition of recombinant human carbonic anhydrase 1 incubated for 6 hrs prior to testing measured for 10 to 100 secs by phenol red-based stopped-flow CO2 hydration assay.
Series [9] concerns the target T3, Carbonic anhydrase 2. In words: Inhibition of recombinant human carbonic anhydrase 2 incubated for 6 hrs prior to testing measured for 10 to 100 secs by phenol red-based stopped-flow CO2 hydration assay.
Series [10] concerns Rattus norvegicus. In words: Antihyperalgesic activity in complete freund's adjuvant-induced Sprague-Dawley rat arthritis model assessed as decrease in weight burden on contralateral to ipsilateral paw at 100 mg/kg, po administered 14 days post complete freund's adjuvant challenge and measured up to 15 mins by incapacitance test. The format is functional, organism-based.
For series [11], the system named is Rattus norvegicus. The series is described as follows: Antihyperalgesic activity in complete freund's adjuvant-induced Sprague-Dawley rat arthritis model assessed as increase in hind paw withdrawal reflex thresholds at 100 mg/kg, po administered 14 days post complete freund's adjuvant challenge and measured after 15 to 60 mins by analgesiometry-based paw pressure test. The format is functional, organism-based.

The subject of series [12] is Rattus norvegicus. The series is described as follows: Antihyperalgesic activity in complete freund's adjuvant-induced Sprague-Dawley rat arthritis model assessed as increase in hind paw withdrawal reflex thresholds at 100 mg/kg, po administered 14 days post complete freund's adjuvant challenge and measured up to 15 mins by analgesiometry-based paw pressure test. The format is functional, organism-based.

Series [13] relates to Rattus norvegicus. In words: Effect on contralateral paw withdrawal reflex threshold in complete freund's adjuvant-induced Sprague-Dawley rat arthritis model at 100 mg/kg, po administered 14 days post complete freund's adjuvant challenge by analgesiometry-based paw pressure test. Type of series: ADME, organism-based. The following applies: in vivo, 336 h.
Another series addresses Carbonic anhydrase 12 (Homo sapiens, UniProt O43570). In words: Inhibition of recombinant human carbonic anhydrase 12 incubated for 6 hrs prior to testing measured for 10 to 100 secs by phenol red-based stopped-flow CO2 hydration assay.
Series [14] addresses T2, Carbonic anhydrase 9. The series is described as follows: Inhibition of recombinant human carbonic anhydrase 9 incubated for 6 hrs prior to testing measured for 10 to 100 secs by phenol red-based stopped-flow CO2 hydration assay.

pKi: −log10 of the molar value. Activity calls are given as the source filed them.

The pKi is the Ki on a negative log10 scale, so that one unit is a factor of ten.

Carbonic anhydrase 12, sequence (O43570 whole entry): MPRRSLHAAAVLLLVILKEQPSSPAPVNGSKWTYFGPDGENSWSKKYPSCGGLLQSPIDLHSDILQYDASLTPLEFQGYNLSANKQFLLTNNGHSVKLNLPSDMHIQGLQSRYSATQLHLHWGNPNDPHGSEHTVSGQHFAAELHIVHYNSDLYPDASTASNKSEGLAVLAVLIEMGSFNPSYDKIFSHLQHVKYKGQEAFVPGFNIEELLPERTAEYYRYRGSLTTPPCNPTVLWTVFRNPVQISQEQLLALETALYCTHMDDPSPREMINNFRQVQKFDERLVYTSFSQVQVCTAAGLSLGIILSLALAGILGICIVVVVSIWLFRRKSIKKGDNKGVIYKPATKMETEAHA
Carbonic anhydrase 4, sequence (P22748 whole entry): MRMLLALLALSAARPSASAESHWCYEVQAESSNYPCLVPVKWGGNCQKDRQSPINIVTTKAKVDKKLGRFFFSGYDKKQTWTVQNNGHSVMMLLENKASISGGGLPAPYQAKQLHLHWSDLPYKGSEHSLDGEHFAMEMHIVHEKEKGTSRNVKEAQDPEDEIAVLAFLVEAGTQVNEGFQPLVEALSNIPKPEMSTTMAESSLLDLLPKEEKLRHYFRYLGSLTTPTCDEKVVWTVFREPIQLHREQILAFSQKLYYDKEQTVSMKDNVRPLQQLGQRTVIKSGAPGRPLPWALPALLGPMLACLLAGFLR

Take `C#CCNc1ccc(S(N)(=O)=O)cc1`: the negative logarithm of the Ki (pKi) was less than 5.00 at Carbonic anhydrase 4, 6.07 at Carbonic anhydrase 1 [1], 6.38 on Carbonic anhydrase 9 [6] and 7.02 on Carbonic anhydrase 2 [7]. In addition, the result with Rattus norvegicus [2] was inactive. For the same molecule, the result in the series with Rattus norvegicus [3] and with Rattus norvegicus [4] was Active. For the same molecule, in the series with Rattus norvegicus [5], the Activity result was “Non-Toxic”.
Consider `C#CCOc1ccc2oc(=O)ccc2c1`, for which the pKi on Carbonic anhydrase 1 [8] and at Carbonic anhydrase 2 [9] was less than 5.00 throughout.
For `CC(C)Cc1ccc(C(C)C(=O)O)cc1` (stereo not given) [IBUPROFEN], the result in the series with Rattus norvegicus [10] and in the series with Rattus norvegicus [12] was Active. The result in the series with Rattus norvegicus [11] was inactive. The Activity entry in the series with Rattus norvegicus [13] is recorded as “Non-Toxic”.
For the molecule `C#CCSc1ccc(S(N)(=O)=O)cc1`, the values for the pKi at Carbonic anhydrase 1 [1], on Carbonic anhydrase 9 [6] and on Carbonic anhydrase 2 [7] were 7.52, 8.12 and 7.53, respectively.
Consider `C#CCOc1ccc2c(c1)C=CS(=O)(=O)O2`, for which the negative logarithm of the Ki (pKi) is less than 5.00 on Carbonic anhydrase 1 [8], less than 5.00 on Carbonic anhydrase 2 [9], 7.35 on Carbonic anhydrase 12 and 6.32 on Carbonic anhydrase 9 [14].
As to `C#CCOc1ccc2c(c1)OS(=O)(=O)C=C2`, the pKi is less than 5.00 at Carbonic anhydrase 1 [8], less than 5.00 on Carbonic anhydrase 2 [9], 7.52 at Carbonic anhydrase 12 and 5.21 at Carbonic anhydrase 9 [14].
For the molecule `C#CCNc1ccc2c(C)cc(=O)oc2c1`, the pKi at Carbonic anhydrase 12 was 7.46; on Carbonic anhydrase 9 [14], 6.77.
As to `C#CCN(CC#C)CCCCOc1ccc(S(N)(=O)=O)cc1`, the values for the pKi at Carbonic anhydrase 1 [1], on Carbonic anhydrase 9 [6] and on Carbonic anhydrase 2 [7] were 6.09, 8.42 and 9.36, respectively.

These data come from ChEMBL document CHEMBL4359845, “Synthesis and Evaluation of Carbonic Anhydrase Inhibitors with Carbon Monoxide Releasing Properties for the Management of Rheumatoid Arthritis” (J Med Chem, 2019).
